Target: T1, NTRK3 (TRKC) (Homo sapiens, UniProt Q16288)
T1 construct: purchased Thermo Fisher Scientific (Life Technologies) SelectScreen
Assay: SelectScreen Z'LYTE
Format: biochemical
Method in brief: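 Percent values come from Thermo SelectScreen profiling of NU5455, combining activity and binding assays. CSF1R was run in Z'LYTE format at Km app ATP, and CAMK1 in Adapta format with ATP listed at 10.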

T1 sequence (Q16288 32-839): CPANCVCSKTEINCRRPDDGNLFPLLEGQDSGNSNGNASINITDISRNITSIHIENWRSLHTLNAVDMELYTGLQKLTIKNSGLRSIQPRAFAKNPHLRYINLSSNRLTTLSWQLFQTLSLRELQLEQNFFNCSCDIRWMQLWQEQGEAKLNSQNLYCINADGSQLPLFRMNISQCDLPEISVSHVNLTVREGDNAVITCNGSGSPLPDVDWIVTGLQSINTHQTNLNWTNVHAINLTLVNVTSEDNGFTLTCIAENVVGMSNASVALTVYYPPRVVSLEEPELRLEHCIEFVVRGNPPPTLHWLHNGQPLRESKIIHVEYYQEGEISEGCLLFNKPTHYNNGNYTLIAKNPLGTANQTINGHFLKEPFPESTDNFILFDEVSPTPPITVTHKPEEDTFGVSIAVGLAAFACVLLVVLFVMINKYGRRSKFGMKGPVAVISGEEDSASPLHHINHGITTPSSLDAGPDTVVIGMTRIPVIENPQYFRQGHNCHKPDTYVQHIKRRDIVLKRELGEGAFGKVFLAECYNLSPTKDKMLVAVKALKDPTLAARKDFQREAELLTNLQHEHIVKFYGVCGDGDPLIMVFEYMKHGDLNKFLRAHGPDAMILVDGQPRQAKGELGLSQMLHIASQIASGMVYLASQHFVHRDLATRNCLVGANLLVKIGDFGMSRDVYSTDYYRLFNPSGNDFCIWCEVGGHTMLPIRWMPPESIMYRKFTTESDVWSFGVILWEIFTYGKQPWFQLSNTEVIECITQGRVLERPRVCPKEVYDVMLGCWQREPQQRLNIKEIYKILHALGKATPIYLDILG

Structure (SMILES): CN(C(=O)CN1CCOCC1)c1ccc2sc3c(-c4cccc5c(=O)cc(N6CC7CCC(C6)O7)oc45)cccc3c2c1 [NU5455]
- inhibition at 1 µM: 0.4%
